Our source for the binding and Kd values is publication PMC12376627 (2025).

Structures are written as SMILES.

The subject of assay [1] is Histamine aptamer (DNA, aptamer) AGCTCCAGAAGATAAATTACAGGGAACGTGTTGGTTGCGGTTCTTCCGATCTGCTGTGTTCTCTATCTGTGCCATGCAACTAGGATACTATGACCCCGG
Put plainly: CNT FET sensor array. The note with it: PC12 culture medium; highest concentration tested 10 nM.

Assay [2] concerns Serotonin aptamer (DNA, aptamer) CGACTGGTAGGCAGATAGGGGAAGCTGATTCGATGCGTGGGTCG
Put plainly: SPR. A general note: Surface plasmon resonance follows binding to a sensor surface in real time, without labels.

The subject of assay [3] is Dopamine aptamer (DNA, aptamer) CGACGCCAGTTTGAAGGTTCGTTCGCAGGTGTGGAGTGACGTCG
Nature of the assay: CNT FET sensor array. Particulars: PC12 culture medium; highest concentration tested 10 nM.

For assay [4], the system named is Serotonin pH-sensitive aptamer (DNA, aptamer) CGACTGGTAGGCAGATAGGGGAAGCTGATTCGATGCGTGGGTCGTTTCGACCTTTCCAGC
Nature of the assay: CNT FET. Particulars: 10 nM target; released at acidic pH.

Assay [5] has as its system Glutamate aptamer (DNA, aptamer) GCATCAGTCCACTCGTGAGGTCGACTGATGAGGCTCGAT
Put plainly: CNT FET sensor array. Particulars: PC12 culture medium; highest concentration tested 10 nM.

The subject of assay [6] is Histamine aptamer (DNA, aptamer) AGCTCCAGAAGATAAATTACAGGGAACGTGTTGGTTGCGGTTCTTCCGATCTGCTGTGTTCTCTATCTGTGCCATGCAACTAGGATACTATGACCCCGG
Nature of the assay: SPR.

Assay [7] concerns Serotonin aptamer (DNA, aptamer) CGACTGGTAGGCAGATAGGGGAAGCTGATTCGATGCGTGGGTCG
Put plainly: CNT FET sensor array. Particulars: PC12 culture medium; highest concentration tested 10 nM.

Assay [8] concerns Histamine pH-sensitive aptamer (DNA, aptamer) AGCTCCAGAAGATAAATTACAGGGAACGTGTTGGTTGCGGTTCTTCCGATCTGCTGTGTTCTCTATCTGTGCCATGCAACTAGGATACTATGACCCCGGTTTCCGGGGTTTTTGGGGCC
Nature of the assay: CNT FET. The note with it: 10 nM target; released at acidic pH.

The subject of assay [9] is Dopamine aptamer (DNA, aptamer) CGACGCCAGTTTGAAGGTTCGTTCGCAGGTGTGGAGTGACGTCG
Put plainly: SPR.

The subject of assay [10] is Dopamine pH-sensitive aptamer (DNA, aptamer) CGACGCCAGTTTGAAGGTTCGTTCGCAGGTGTGGAGTGACGTCGTTTCGACGCTTTAGCAGC
Nature of the assay: CNT FET. The note with it: 0.1x PBS (1x: 137 mM NaCl, 2.7 mM KCl); pH 7.4; 10 nM dopamine; released at acidic pH.

The subject of assay [11] is Glutamate pH-sensitive aptamer (DNA, aptamer) GCATCAGTCCACTCGTGAGGTCGACTGATGAGGCTCGATTTTATCGATTTAGCTA
Put plainly: CNT FET. The note with it: 10 nM target; released at acidic pH.

In assay [12] the test system is Glutamate aptamer (DNA, aptamer) GCATCAGTCCACTCGTGAGGTCGACTGATGAGGCTCGAT
Nature of the assay: SPR.

On to `NCCc1c[nH]c2ccc(O)cc12`, for which the binding entry in assay [1] was “no”; in assay [3], “no”; in [4], “yes”; in [5] it was “no”. Further, in [2], the Kd is recorded as 10.5 nM.

With `NCCc1c[nH]cn1`, in [6], the Kd turned out to be 15 nM. Also, the binding entry is given as “no” in assay [7], “no” in [3], “yes” in assay [8] and “no” in assay [5].

Take `NCCc1ccc(O)c(O)c1`: the binding result in [1] is on record as “no”; in assay [7] it was “no”; in assay [10], “yes”; in assay [5] it was “no”. Also, in assay [9], the Kd is recorded as 20 nM.

Regarding `N[C@@H](CCC(=O)O)C(=O)O`, the binding entry in [11] is given as “yes”; in assay [1] it was “no”; in assay [7], “no”; in [3] it was “no”. The compound further yielded a Kd in assay [12] of 293 nM.

A word on the Kd: it is a measure of binding affinity in units of concentration.
